# According to patent publication US5712417A, “Inhibitors of retroviral proteases” (Abbott Laboratories, priority 1989, dated 1998):
# Structures can show the parent of a compound that is named as a salt.
# Target: T1, HIV protease (Human immunodeficiency virus type 1 group M subtype B, UniProt P04585)
# T1 construct: HIV protease consists of 99 amino acids and is evidently split off by itself from the pol polyprotein
# Test: Inhibition of HIV protease (cleavage of H-Ser-Phe-Asn-Phe-Opr-Gln-Ile-OH, HPLC)
# Format: biochemical
# Conditions: inhibitor concentration at which the cleavage rate is halved; Ex. 99; read-out: IC50
# From the text: The compounds of the formula (I) according to the invention have enzyme-inhibiting properties. In particular, they inhibit the action of retroviral aspartyl proteases, such as that of HIV protease. Their enzyme-inhibitory action, which is in the milli- to subnanomolar range, can be determined as follows.
# The heptapeptide: H-Ser-Phe-Asn-Phe-Pro-Gln-Ile-OH (P. L. Darke et al., Biophys. Res. Commun. 156 (1988) 297-303), inter alia, has hitherto been used as the substrate of HIV protease. HIV protease cleaves the substrate here between the second Phe and Pro.
# General instructions for testing inhibitors of HIV proteases: a) Preparation of the substrate solution:
# 2 mg of H-Ser-Phe-Asn-Phe-Opr-Gln-Ile-OH (H-Opr-OH=5-oxaproline) are dissolved in 1 ml of MGTE15 buffer (use of ultrasound if necessary) and the solution is then filtered over a sterile filter (0.45 μm). […]
# b) Preparation of the inhibitor solution:
# 2.5 times the desired molarity of the inhibitor per ml of solution are weighed out and dissolved in DMSO (10% of the final volume). The solution is diluted to the final volume with MGTE15 buffer and filtered over a sterile filter (0.45 μm). […]
# c) Preparation of the protease solution:
# 5 μl of the HIV protease solution are diluted with MGTE25 buffer as required.
# 10 μl portions of the substrate solution are pipetted into test-tubes (16×100) with a screw cap. For the blank experiment, 10 μl of MGTE15 buffer containing 10% of DMSO are pipetted into a test-tube. 10 μl portions of the inhibitor solutions are added to the other test-tubes. The mixtures are incubated at 37° C. for 5-10 minutes and 5 μl of the protease solution are then added to each sample, After reaction at 35° C. for 2 hours, 10 or 20 μl (depending on the sensitivity of the HPLC apparatus) of each sample are then pipetted off, introduced into microvials and diluted with 120 μl of the HPLC mobile phase. […]
# e) Conditions for the HPLC analysis:
# 20% (weight/weight) of aceto-
# Column: Merck ®LICHROSORB RP18 (5 μm) 250×4
# Column temperature: 42° C.
# Detector parameters: 215 nm, 0.08 AUF, 18.2° C.
# Analysis time: 11 minutes
# Retention time of the substrate: 8.1 minutes
# Retention time of the N-terminal tetrapeptide: 3.9 minutes
# 20 mM morpholinoethanesulfonic acid (MES)
# 15% (weight/volume) of glycerol
# 0.1% (volume/volume) of Triton ×100
# 1 mM phenylmethylsulfonyl fluoride (PMSF)
# 25% (weight/volume) of glycerol, additionally 1 mM dithiothreitol (DTT) The MES, EDTA, NaCl, DTT and PMSF are weighed into a conical flask and dissolved in a little water and the pH is brought to 6. The corresponding amount of glycerol is weighed into a measuring flask and ®Triton ×100 is pipetted in. The aqueous solution is transferred to the measuring flask and made up to the mark with water.
# A 0.1M solution is prepared from orthophosphoric acid (FLUKA extra pure analytical grade). This solution is brought to exactly pH 2.5 with triethylamine (FLUKA extra pure analytical grade). The weight of the solution is determined and the corresponding amount of acetonitrile (fume cupboard) is weighed in. The mixture is mixed thoroughly and degassed with helium 5.0 for about 5 minutes.
# Under the conditions chosen here, heptapeptides are separated from the N-terminal tetrapeptide formed during enzymatic cleavage. The percentage content of the tetrapeptide peak in respect of the sum of tetrapeptide+heptapeptide corresponds to the cleaving rate. The following IC50 values indicate the inhibitor concentration at which the cleavage rate is halved.
row,IC50,Structure (SMILES)
1,15 nM,"CC(C)[C@H](NC(=O)[C@@H](CC(=O)N1CCC(N)CC1)Cc1ccccc1)C(=O)N[C@@H](Cc1ccccc1)[C@@H](O)[C@H](O)[C@H](Cc1ccccc1)NC(=O)[C@@H](NC(=O)[C@@H](CC(=O)N1CCC(N)CC1)Cc1ccccc1)C(C)C [Example 99, N,N'-bis-<3-(4-Amino-1-piperidylcarbonyl-2R-benzyl-propionyl-L-valyl>-2S,5S-diamino-1,6-diphenylhexane-3R,4R-dioldihydrochloride]"

# Same assay, conditions: inhibitor concentration at which the cleavage rate is halved; pH 6, 2 hours; read-out: IC50
row,IC50,Structure (SMILES)
1,8.5 nM,"CC(C)[C@H](NC(=O)[C@H](Cc1ccccc1)OC1O[C@H]([C@H](O)CO)[C@H](O)[C@@H]1O)C(=O)N[C@@H](Cc1ccccc1)[C@@H](O)[C@H](O)[C@H](Cc1ccccc1)NC(=O)[C@@H](NC(=O)[C@H](Cc1ccccc1)OC1O[C@H]([C@H](O)CO)[C@H](O)[C@@H]1O)C(C)C (stereo partly drawn) [Example 107, N,N'-bis-<O-(D-Mannofuranosyl)-2S-hydroxy-3-phenyl-propionyl-L-valyl>-2S,5S-diamino-1,6-diphenylhexane-3R,4R-diol]"
2,36 nM,"CC(C)[C@H](NC(=O)C(Cc1ccccc1)CS(=O)(=O)N1CCC(N)CC1)C(=O)N[C@@H](Cc1ccccc1)[C@@H](O)[C@H](O)[C@H](Cc1ccccc1)NC(=O)[C@@H](NC(=O)C(Cc1ccccc1)CS(=O)(=O)N1CCC(N)CC1)C(C)C (stereo partly drawn) [Example 97, N,N'-bis-<3-(4-Amino-1-piperidylsulfonyl)-2-benzyl-propionyl-L-valyl>-2S,5S-diamino-1,6-diphenylhexane-3R,4R-diol]"
3,0.7 nM,"CC(C)[C@H](NC(=O)[C@H](Cc1ccccc1)NC(=O)[C@@H](N)CO)C(=O)N[C@@H](Cc1ccccc1)[C@H](O)[C@@H](O)[C@H](Cc1ccccc1)NC(=O)[C@@H](NC(=O)[C@H](Cc1ccccc1)NC(=O)[C@@H](N)CO)C(C)C [Example 19, N,N'-bis-(L-Seryl-L-phenylalanyl-L-valyl)-2S,5S-diamino-1,6-diphenylhexane-3S,4S-diol dihydrochloride]"
4,100 nM,"CC(C)[C@H](NC(=O)[C@H](Cc1cccc2ccccc12)CS(=O)(=O)C(C)(C)C)C(=O)NCCCCNC(=O)[C@@H](NC(=O)[C@H](Cc1cccc2ccccc12)CS(=O)(=O)C(C)(C)C)C(C)C [Example 146, N,N'-bis-<(2S-(1,1-Dimethylethylsulfonylmethyl)-3-(1-naphthyl)-propionyl)-L-valyl>-1,4-diaminobutane]"
5,40 nM,"CC(C)[C@H](NC(=O)[C@@H](N)Cc1ccccc1)C(=O)NC[C@@H](O)[C@H](O)CNC(=O)[C@@H](NC(=O)[C@@H](N)Cc1ccccc1)C(C)C [Example 113, N,N,-bis-<L-phenylalanyl-L-valyl>-1,4-diaminobutane-2R,3R-diol dihydrochloride]"
6,0.75 nM,"CC(C)[C@H](NC(=O)[C@H](Cc1ccc2ccccc2c1)NS(C)(=O)=O)C(=O)N[C@@H](Cc1ccccc1)[C@@H](O)[C@H](O)[C@H](Cc1ccccc1)NC(=O)[C@@H](NC(=O)[C@H](Cc1ccc2ccccc2c1)NS(C)(=O)=O)C(C)C [Example 125, N,N,-bis-<N-Mesyl-β-naphthylalanyl-L-valyl>-2S,5S-diamino-1,6-diphenylhexane-3R,4R-diol]"
7,40000 nM,"CC(C)[C@H](N)C(=O)N[C@@H](Cc1ccccc1)[C@H](O)[C@@H](O)[C@H](Cc1ccccc1)NC(=O)[C@@H](N)C(C)C [Example 131, N,N'-bis-<L-Valyl>-2S,5S-diamino-1,6-diphenylhexane-3S,4S-diol dihydrochloride]"
8,1.7 nM,"CC(C)[C@H](NC(=O)[C@@H](N)CC1CCCCC1)C(=O)N[C@@H](Cc1ccccc1)[C@@H](O)[C@H](O)[C@H](Cc1ccccc1)NC(=O)[C@@H](NC(=O)[C@@H](N)CC1CCCCC1)C(C)C [Example 116, N,N'-bis-<L-Cyclohexylalanyl-L-valyl>-2S,5S-diamino-1,6-diphenylhexane-3R,4R-diol dihydrochloride]"
9,1.9 nM,"CC(C)[C@H](NC(=O)CN)C(=O)N[C@@H](Cc1ccccc1)[C@@H](O)[C@H](O)[C@H](Cc1ccccc1)NC(=O)[C@@H](NC(=O)CN)C(C)C [Example 85, N,N'-bis-<Glycyl-L-valyl>-2S,5S-diamino-1,6-diphenyl-hexane-3R,4R-dioldihydrochloride]"

row,Structure (SMILES),IC50
1,"CC(C)(C)OC(=O)N[C@H](CNC[C@H](Cc1ccccc1)NC(=O)OC(C)(C)C)Cc1ccccc1 [Example 25, Bis-(N-tert.-butoxycarbonyl-2S-amino-3-phenylpropyl)-amine hydrochloride]",18000 nM
2,"CC(C)[C@H](NC(=O)[C@H](Cc1ccccc1)NC(=O)OC(C)(C)C)C(=O)N[C@H](Cc1ccccc1)[C@@H](O)[C@H](O)[C@@H](Cc1ccccc1)NC(=O)[C@@H](NC(=O)[C@H](Cc1ccccc1)NC(=O)OC(C)(C)C)C(C)C [Example 33, N,N'-bis-(tert.-Butoxycarbonyl-L-phenylalanyl-L-valyl)-2R,5R-diamino-1,6-diphenylhexane-3R,4R-diol]",20000 nM
3,"CC(C)[C@H](NC(=O)[C@@H](CNC(=O)OC(C)(C)C)Cc1ccccc1)C(=O)N[C@@H](Cc1ccccc1)[C@@H](O)[C@H](O)[C@H](Cc1ccccc1)NC(=O)[C@@H](NC(=O)[C@@H](CNC(=O)OC(C)(C)C)Cc1ccccc1)C(C)C [Example 106, N,N,-bis-<(2R-Benzyl-3-tert.-butoxycarbonylamino)-propionly-L-valyl>-2S,5S-diamino-1,6-diphenylhexane-3R,4R-diol]",85 nM
4,"COc1ccc(C[C@H](NC(=O)OC(C)(C)C)C(=O)N[C@H](C(=O)N[C@@H](Cc2ccccc2)[C@H](O)[C@@H](O)[C@H](Cc2ccccc2)NC(=O)[C@@H](NC(=O)[C@H](Cc2ccc(OC)cc2)NC(=O)OC(C)(C)C)C(C)C)C(C)C)cc1 [Example 77, N,N'-bis-<tert.-Butoxycarbonyl-(O-methyltyrosyl)-L-valyl>-2S,5S-diamino-1,6-diphenylhexane-3S,4S-diol]",9.2 nM
5,"CC(C)[C@H](NC(=O)[C@H](Cc1ccccc1)NC(=O)OC(C)(C)C)C(=O)N[C@@H](Cc1ccccc1)[C@@H](O)[C@H](O)[C@H](Cc1ccccc1)NC(=O)[C@@H](NC(=O)[C@H](Cc1ccccc1)NC(=O)OC(C)(C)C)C(C)C [Example 1, N,N,-bis-(tert.-Butoxycarbonyl-L-phenylalanyl-L-valyl)-2S,5S-diamino-1,6-diphenylhexane-3R,4R-diol]",10 nM
6,"CC(C)C[C@H](NC(=O)OC(C)(C)C)C(=O)N[C@H](C(=O)N[C@@H](Cc1ccccc1)[C@H](O)[C@@H](O)[C@H](Cc1ccccc1)NC(=O)[C@@H](NC(=O)[C@H](CC(C)C)NC(=O)OC(C)(C)C)C(C)C)C(C)C [Example 88, N,N'-bis-<tert.-Butoxycarbonyl-L-leucyl-L-valyl>-2S,5S-diamino-1,6-diphenylhexane-3S,4S-diol]",1000 nM
7,"CC(C)[C@H](NC(=O)[C@H](Cc1ccccc1)NC(=O)OC(C)(C)C)C(=O)N[C@@H](CC1CCCCC1)[C@H](O)[C@@H](O)[C@H](CC1CCCCC1)NC(=O)[C@@H](NC(=O)[C@H](Cc1ccccc1)NC(=O)OC(C)(C)C)C(C)C [Example 45, N,N'-bis-(tert.-Butoxycarbonyl-L-phenylalanyl-L-valyl)-2S,5S-diamino-1,6-dicyclohexylhexane-3S,4S-diol]",1500 nM

# Same assay, conditions: read-out: IC50
row,IC50,Structure (SMILES)
1,1.2 nM,"CC(C)[C@H](NC(=O)[C@@H](N)Cc1ccccc1)C(=O)N[C@@H](Cc1ccccc1)[C@H](O)[C@H](O)[C@H](Cc1ccccc1)NC(=O)[C@@H](NC(=O)[C@@H](N)Cc1ccccc1)C(C)C [Example 18, N,N'-bis-(L-Phenylalanyl-L-valyl)-2S,5S-diamino-1,6-diphenylhexane-3R,4S-diol dihydrochloride]"
